Patent US10632195B2, “Pharmaceutical device for electric-field assisted administration of Tapentadol and method of administering Tapentadol with same” (Gruenenthal GmbH, priority 2012, dated 2020)

What was measured:
[1] = preliminary clinical trials: serum concentration and pain treating effect (visual analog scale); assay type: in vivo, human
Excerpt: Low serum concentrations of Tapentadol suffice to show an effect in individuals that are relatively sensitive and higher serum concentrations of Tapentadol are needed to show an effect in persons that are relatively unsensitive.

[2] = HPLC purity of Tapentadol in exhausted hydrogel after electric-field-assisted administration (example 4); assay type: physicochemical
[3] = combined electrophoretic and iontophoretic transdermal delivery from hydrogel formulation C in device according to FIG. 3 (examples 3a, 3b, 3c); assay type: in vitro ADME, mouse
Excerpt: The rate of combined iontophoretic and electrophoretic transdermal delivery of aTapentadol hydrochloride containing hydrogel formulation has been investigated in examples 3a, 3b and 3c.
(§1) The linearity of the method was verified by calibration with an aqueous solution of Tapentadol hydrochloride.
The hydrogel formulation C (as described in example 2a) has been placed in a combined electrophoretic and iontophoretic device according to FIG. 3. The following components were used for preparing the inventive electrophoretic and iontophoretic device according to FIG. 3:
silver electrodes as pair of electrodes consisting of an active electrode (1a) and a counter electrode (2a) (silver gauze, 1024 mesh/cm^2, 0.12 wire diameter, 99.9% Ag, 18 mm diameter and 14 mm diameter, respectively), an additional silver ring electrode as an auxiliary electrode (silver gauze, 1024 mesh/cm^2, 0.12 wire diameter, 99.9% Ag, 20 mm outer diameter and 16 mm inner diameter, respectively), a hydrogel formulation (comprising 2.5%-wt. Klucel® HF and 0.1%-wt. sodium chloride, having a pH value of 7.0) as additional reservoir (15) being in contact with the silver ring electrode, a foam ring as (9) (Alveolit TA 1001 005 White, 95 kg/m^3, 24 mm outer diameter, 20 mm inner diameter), hydrogel formulation C as drug reservoir (3), teflon ring as barrier material (10) (thickness 1 mm, outer diameter 16 mm, inner diameter 11 mm and, thickness 0.5 mm, outer diameter 20 mm, inner diameter 16 mm, respectively), silicone adhesive Bio PSA-7 4502 as adhesive layer (4a), which has been in contact with a removable protective layer prior to use (transparent PETP foil manufactured by 3M®, 74 μm, with one-side fluorination, 24 mm diameter), acrylate adhesive DuroTAK 387-2054 as a second adhesive layer (8), a PET foil as surface layer (7) (Loparex PET foil, 75 μm, 105 g/m^2, 24 mm diameter).
Three wires were soldered to the electrodes and connected to a conventional current source as electric power source (6a) (Voltakraft® laboratory power supply DIGI 35).
A transdermal delivery experiment across mouse skin has been performed. In the first electrophoretic phase, only the silver electrodes as pair of electrodes consisting of an active electrode (1a) and a counter electrode (2a) were connected to the current supply. After application of 2.5 hours a single pulse having a pulse length of 60 s at a constant voltage of 3 V has been applied. After application of said pulse both electrodes were disconnected from the voltage generator. In the second iontophoretic phase following the electrophoretic phase, the counter electrode (2a) of the electrophoretically used pair of silver electrodes (1a and 2a) is used as an active electrode (1b) and the additional silver ring electrode is used a counter electrode (2b). A single pulse having a pulse length of 60 s at a constant voltage of 3 V has been applied in the iontophoretic phase.
The hydrogel formulation C (as described in example 2a) has been placed in a combined electrophoretic and iontophoretic device according to FIG. 3. The same components were used for preparing the inventive combined electrophoretic and iontophoretic device as described in example 3a.
Three transdermal delivery experiments (E-1, E2 and E3 as example 3b) to mouse skin have been performed in order to directly assess differences between a solely electrophoretic transdermal delivery and a combined electrophoretic and iontophoretic transdermal delivery as indicated in FIG. 13 and FIG. 14: […]

[4] = electrophoretic transdermal delivery from hydrogel formulations in device according to FIG. 1 (examples 2a, 2b, 2c; passive comparative example 2a); assay type: in vitro ADME, mouse; conditions: for total amount of Tapentadol permeated, electrophoretic delivery: after 24 hours, 60 s pulses after 1.5 and 16.5 hours
Excerpt: The rate of electrophoretic transdermal delivery of three different exemplary Tapentadol hydrochloride containing hydrogel formulations A, B and C has been investigated in example 2a, 2b and 2c. Further, the rate of passive transdermal delivery of a corresponding Tapentadol hydrochloride containing hydrogel formulation has been investigated in a comparative experiment 2a.
as §1
The hydrogel formulation B has been placed in an electrophoretic transdermal delivery system according to FIG. 1. The following components were used for preparing the electrophoretic device according to FIG. 1:
silver electrodes as pair of electrodes consisting of an active electrode (1a) and a counter electrode (2a) (silver gauze, 1024 mesh/cm^2, 0.12 wire diameter, 99.9% Ag, 18 mm diameter), a foam ring (9) (Alveolit TA 1001 005 White, 95 kg/m^3, 22 mm outer diameter, 16 mm inner diameter), hydrogel formulation B as drug reservoir (3), a teflon ring as barrier material (10) (thickness 1 mm, outer diameter 16 mm, inner diameter 11 mm), silicone adhesive Bio PSA-7 4502 as adhesive layer (4a), which has been in contact with a removable protective layer prior to use (transparent PETP foil manufactured by 3M®, 74 μm, with one-side fluorination, 22 mm diameter), acrylate adhesive DuroTAK 387-2054 as a second adhesive layer (8), a PET foil as surface layer (7) (Loparex PET foil, 75 μm, 105 g/m^2, 22 mm diameter).
Two wires were soldered to the electrodes and connected to a conventional current source as electric power source (6a) (Voltakraft® laboratory power supply DIGI 35).
Transdermal delivery experiments across mouse skin have been performed after two short current pulses (2 V) have been applied for 2 s after 1.5 hour and for 2 s after 16.5 hours.
For comparison, the hydrogel formulation B or A has been placed in an electrophoretic transdermal delivery system according to FIG. 1 and passive transdermal delivery experiments to mouse skin have been performed, i.e. no electric current has been applied to these systems (passive control experiments). This experiment has been performed twice for formulation B (compB-1 and compB-2) and once in case of formulation A (compA) (comparative example 2a) as indicated in FIG. 4 and FIG. 5.
The hydrogel formulation B has been placed in an electrophoretic transdermal delivery system according to FIG. 1 comprising the same components as used for example 2a and comparative example 2a.
Transdermal delivery experiments across mouse skin have been performed after two current pulses have been applied. […]

[5] = exhausted hydrogel of F-3 of example 3c, HPLC

CC[C@@H](c1cccc(O)c1)[C@@H](C)CN(C)C [Tapentadol, (−)-(1R,2R)-3-(3-dimethyl-amino-1-ethyl-2-methyl-propyl)-phenol]
visual analog scale (VAS) in a population mean ([1]; at serum concentration of about 5 ng·ml-1): approximately −2 mm | visual analog scale (VAS) in a population mean ([1]; at serum concentration of about 300 ng·ml-1): approximately −15 mm | electrically induced degradation of Tapentadol ([2]; during electric-field administration of the device): does not induce a significant degradation | Tapentadol content [2, 5]: 95.3% | sum of impurities [2, 5]: 4.7% | fall-off of the drug flux ([3]; E-2, after 18 hours compared to the maximum at about 6 hours): about 50% | total amount of Tapentadol permeated, combined electrophoretic and iontophoretic delivery ([3]; after 24 hours, D-1: formulation C, 60 s 3 V electrophoretic pulse after 2.5 hours then 60 s 3 V iontophoretic pulse, mouse skin probably injured): 430 μg/cm^2 | total amount of Tapentadol permeated, electrophoretic delivery ([3]; after 24 hours, E-2: formulation C, four 60 s 3 V electrophoretic pulses (0, 15.75, 18, 20.75 h)): more than 700 μg/cm^2 | total amount of Tapentadol permeated, combined electrophoretic and iontophoretic delivery ([3]; after 24 hours, E-3: formulation C, four 60 s 3 V electrophoretic pulses (0, 15.75, 18, 20.75 h) each followed by 9 V iontophoretic pulse): more than 800 μg/cm^2 | total amount of Tapentadol permeated, combined electrophoretic and iontophoretic delivery ([3]; after 24 hours, F-3: formulation C, four 60 s 4 V electrophoretic pulses (0, 2.5, 5.5, 21.5 h) each followed by 9 V iontophoretic pulse): about 1500 μg/cm^2 | total amount of Tapentadol permeated, electrophoretic delivery ([4]; B-5: formulation B, 2 V): more than 300 μg/cm^2 | total amount of Tapentadol permeated, electrophoretic delivery ([4]; C-3: formulation C, 5 V): 670 μg/cm^2 | increase of cumulative skin permeation by electrophoresis versus passive delivery ([4]; hydrogel formulation B, example 2a (2 V pulses of 2 s after 1.5 and 16.5 hours) vs comparative example 2a, from FIG. 4): 5-10 fold | Tapentadol remaining within the transdermal delivery system ([4]; over 24 hours of administration, examples 2a, 2b and 2c): about 90 wt.-%
